From the CheMixHub viscosity set
± gives the uncertainty stated by the source.

Assay: xn = mol fraction of the nth substance listed

CC(C)CCO + OCCCO
viscosity [mPa·s], 100 kPa
Details	x1 = 0.0679	x1 = 0.1388	x1 = 0.218	x1 = 0.3009	x1 = 0.4084	x1 = 0.4979	x1 = 0.6034	x1 = 0.7212	x1 = 0.8537
298.15 K	37.92 ± 0.25	35.56 ± 0.23	32.86 ± 0.21	29.98 ± 0.2	26.12 ± 0.17	22.84 ± 0.16	18.89 ± 0.13	14.42 ± 0.11	9.305 ± 0.084
303.15 K	30.13 ± 0.2	28.24 ± 0.19	26.14 ± 0.17	23.83 ± 0.16	20.79 ± 0.14	18.2 ± 0.13	15.09 ± 0.11	11.57 ± 0.094	7.532 ± 0.076
308.15 K	25.86 ± 0.17	24.27 ± 0.16	22.55 ± 0.15	20.66 ± 0.14	18.08 ± 0.13	15.91 ± 0.12	13.3 ± 0.1	10.25 ± 0.088	6.745 ± 0.073

CC(C)CCO + OCCO
viscosity [mPa·s], 100 kPa
Details	x1 = 0.0538	x1 = 0.1127	x1 = 0.1769	x1 = 0.2492	x1 = 0.3333	x1 = 0.4312	x1 = 0.5385	x1 = 0.6667	x1 = 0.8167
298.15 K	17.29 ± 0.092	16.59 ± 0.091	15.84 ± 0.09	14.92 ± 0.088	13.82 ± 0.086	12.46 ± 0.084	10.93 ± 0.081	8.999 ± 0.076	6.622 ± 0.07
303.15 K	13.53 ± 0.081	13.1 ± 0.08	12.52 ± 0.08	11.8 ± 0.079	10.97 ± 0.077	9.889 ± 0.075	8.629 ± 0.073	7.087 ± 0.07	5.243 ± 0.066
308.15 K	11.48 ± 0.075	11.11 ± 0.075	10.72 ± 0.074	10.22 ± 0.074	9.549 ± 0.073	8.689 ± 0.072	7.683 ± 0.07	6.336 ± 0.068	4.792 ± 0.064

CCOCCO + OCCO
Details	viscosity [mPa·s]
293.15 K, 101 kPa, x1 = 0.0582	18.48 ± 0.12
293.15 K, 101 kPa, x1 = 0.0952	16.68 ± 0.11
293.15 K, 101 kPa, x1 = 0.2037	11.81 ± 0.076
293.15 K, 101 kPa, x1 = 0.3098	7.965 ± 0.051
293.15 K, 101 kPa, x1 = 0.4062	5.445 ± 0.036
293.15 K, 101 kPa, x1 = 0.4503	4.568 ± 0.031
293.15 K, 101 kPa, x1 = 0.5003	3.813 ± 0.025
293.15 K, 101 kPa, x1 = 0.5413	3.301 ± 0.022
293.15 K, 101 kPa, x1 = 0.5988	2.777 ± 0.018
293.15 K, 101 kPa, x1 = 0.6952	2.401 ± 0.016
293.15 K, 101 kPa, x1 = 0.8031	2.264 ± 0.015
293.15 K, 101 kPa, x1 = 0.9002	2.143 ± 0.014
293.15 K, 101 kPa, x1 = 0.9508	2.121 ± 0.013
293.15 K, 101.33 kPa, x2 = 0.0923	2.519 ± 0.02
293.15 K, 101.33 kPa, x2 = 0.2349	3.38 ± 0.026
293.15 K, 101.33 kPa, x2 = 0.3267	4.07 ± 0.031
293.15 K, 101.33 kPa, x2 = 0.4103	4.91 ± 0.037
293.15 K, 101.33 kPa, x2 = 0.4957	6.008 ± 0.043
293.15 K, 101.33 kPa, x2 = 0.5486	6.84 ± 0.048
293.15 K, 101.33 kPa, x2 = 0.6451	8.722 ± 0.058
293.15 K, 101.33 kPa, x2 = 0.7319	10.9 ± 0.07
293.15 K, 101.33 kPa, x2 = 0.7782	12.29 ± 0.078
293.15 K, 101.33 kPa, x2 = 0.8336	14.04 ± 0.088
293.15 K, 101.33 kPa, x2 = 0.9075	16.88 ± 0.1
293.15 K, 101.33 kPa, x2 = 0.9556	19.08 ± 0.12
298.15 K, 101 kPa, x1 = 0.0423	15.82 ± 0.1
298.15 K, 101 kPa, x1 = 0.1127	13.26 ± 0.086
298.15 K, 101 kPa, x1 = 0.1983	10.12 ± 0.066
298.15 K, 101 kPa, x1 = 0.2953	7.192 ± 0.047
298.15 K, 101 kPa, x1 = 0.3988	4.883 ± 0.033
298.15 K, 101 kPa, x1 = 0.4532	4.022 ± 0.027
298.15 K, 101 kPa, x1 = 0.5005	3.474 ± 0.023
298.15 K, 101 kPa, x1 = 0.5429	3.085 ± 0.021
298.15 K, 101 kPa, x1 = 0.593	2.739 ± 0.018
298.15 K, 101 kPa, x1 = 0.6905	2.349 ± 0.015
298.15 K, 101 kPa, x1 = 0.8044	2.188 ± 0.014
298.15 K, 101 kPa, x1 = 0.8963	2.021 ± 0.013
298.15 K, 101 kPa, x1 = 0.9496	1.94 ± 0.012
303.15 K, 101 kPa, x1 = 0.0596	12.4 ± 0.082
303.15 K, 101 kPa, x1 = 0.1011	11.29 ± 0.075
303.15 K, 101 kPa, x1 = 0.1976	8.571 ± 0.056
303.15 K, 101 kPa, x1 = 0.3002	5.937 ± 0.04
303.15 K, 101 kPa, x1 = 0.3989	4.122 ± 0.028
303.15 K, 101 kPa, x1 = 0.4504	3.447 ± 0.023
303.15 K, 101 kPa, x1 = 0.4926	2.988 ± 0.02
303.15 K, 101 kPa, x1 = 0.5502	2.554 ± 0.017
303.15 K, 101 kPa, x1 = 0.6034	2.237 ± 0.015
303.15 K, 101 kPa, x1 = 0.7013	1.974 ± 0.013
303.15 K, 101 kPa, x1 = 0.8026	1.954 ± 0.013
303.15 K, 101 kPa, x1 = 0.8923	1.933 ± 0.012
303.15 K, 101 kPa, x1 = 0.9401	1.883 ± 0.012

CC[N+](CC)(CC)CC.[Br-] + OCCO
viscosity [mPa·s], 100 kPa
Details	298 K	298.15 K	308 K	318 K
x1 = 0.333	–	37.5 ± 0.66	–	–
x2 = 0.75	28 ± 0.6	–	18.5 ± 0.4	13 ± 0.3
